US8697694B2, “Substituted pyridine and pyrimidine derivatives and their use in treating viral infections” (priority 2008, dated 2014)

Test system: HCV replicon cells
Assay: Cell-based HCV replicon assay (replicon RNA level by real time PCR, Taqman)
Details: Hepatitis C virus, 72 h, HCV replicon cells, harvested day 3, replicon RNA by real time PCR; given as number; read-out: EC90 (μM) range
How it was run: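 Readout: ΔCT between NS5B replicon RNA and GAPDH by real-time RT-PCR in lysates harvested on day 3, fitted sigmoidally; EC50 at ΔCT=1, EC90 at ΔCT=3.2. Compounds tested at ten 2-fold dilutions from 25 μM to 1 μM start, 10% FBS, 0.5% DMSO.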

SMILES	EC90 [µM]
COCCNc1nc(C)c(-c2cc3cc(OCC(C)(C)C)nc(C)c3o2)c(N[C@@H]2C[C@H](CO)[C@@H](O)[C@H]2O)n1 [Example 49]	> 25
CCOc1cc2cc(-c3c(C)nc(NCC(C)(C)C)nc3N[C@@H]3C[C@H](CO)[C@@H](O)[C@H]3O)oc2c(C)n1 [Example 27]	0.35
Cc1nc(NCC(F)(F)F)nc(N[C@H]2C[C@H](O)[C@@H]3C[C@@H]32)c1-c1nc2ccccc2s1 [Example 53]	2.1

Same assay, conditions: Hepatitis C virus, 72 h, HCV replicon cells, harvested day 3, replicon RNA by real time PCR; reported as range class; read-out: EC90 (μM) range

SMILES	EC90 [µM]
CCOc1cc2cc(-c3c(Cl)nc(NCC(F)(F)F)nc3N[C@@H]3C[C@H](CO)[C@@H](O)[C@H]3O)oc2c(C)n1 [Example 20]	< 0.5
CCCc1cc2cc(-c3c(Cl)nc(NC)nc3N[C@@H]3C[C@H](CO)[C@@H](O)[C@H]3O)oc2c(C)n1 [Example 312]	< 0.5
Cc1cc2cc(-c3c(Cl)nc(N)nc3N[C@@H]3C[C@H](CO)[C@@H](O)[C@H]3O)oc2c(C)n1 [Example 401]	< 0.5
Nc1nc(Cl)c(-c2cc3cc(-c4ccccc4)ccc3o2)c(N[C@@H]2C[C@H](CO)[C@@H](O)[C@H]2O)n1 [Example 174]	> 5
N#Cc1ccc2oc(-c3c(Cl)nc(N)nc3N[C@@H]3C[C@H](CO)[C@@H](O)[C@H]3O)cc2c1 [Example 171]	> 5
Nc1nc(Cl)c(-c2cc3cc(-c4nc5ccccc5o4)ccc3o2)c(N[C@@H]2C[C@H](CO)[C@@H](O)[C@H]2O)n1 [Example 180]	> 5
CC(=O)OCCNc1nc(Cl)c(-c2nc3ccccc3s2)c(N[C@@H]2C[C@H](CO)[C@@H](O)[C@H]2O)n1 [Example 209]	< 0.5
CNc1nc(Cl)c(-c2nc3ccccc3s2)c(N(C)[C@@H]2C[C@H](CO)[C@@H](O)[C@H]2O)n1 [Example 404]	> 5
Nc1nc(Cl)c(-c2ccco2)c(N[C@@H]2C[C@H](CO)[C@@H](O)[C@H]2O)n1 [Example 152]	> 5
CC(=O)OCCNc1nc(C)c(-c2nc3ccccc3s2)c(N[C@@H]2C[C@H](CO)[C@@H](O)[C@H]2O)n1 [Example 211]	< 0.5
Cc1ccc2oc(-c3c(Cl)nc(N)nc3N[C@@H]3C[C@H](CO)[C@H]4OC(C)(C)O[C@H]43)nc2c1 [Example 192]	> 5
Nc1nc(Cl)c(-c2nccs2)c(N[C@@H]2C[C@H](CO)[C@@H](O)[C@H]2O)n1 [Example 104]	> 5
CCCOc1ccc2nc(-c3c(Cl)nc(N)nc3N[C@@H]3C[C@H](CO)[C@@H](O)[C@H]3O)sc2c1 [Example 197]	< 0.5

Same assay, conditions: Hepatitis C virus, 72 h, HCV replicon cells, harvested on day 3, replicon RNA by real time PCR; calculated EC90 reported as range class; read-out: EC90 (μM) range

SMILES	EC90 [µM]
Cc1nc(NCc2cccs2)nc(N[C@@H]2CCC[C@H]2O)c1-c1nc2ccccc2s1 (racemic) [Example 333]	< 0.5
OC[C@H]1C[C@@H](Nc2nc(NC3CCOCC3)nc(Cl)c2-c2nc3ccccc3s2)[C@H](O)[C@@H]1O [Example 424]	< 0.5
COc1ccc(CNc2nc(C)c(-c3nc4ccccc4s3)c(N[C@@H]3C[C@H](CO)[C@@H](O)[C@H]3O)n2)cc1OC [Example 709]	< 0.5
Cc1nc(NCc2cccc[n+]2[O-])nc(N[C@@H]2C[C@H](CO)[C@@H](O)[C@H]2O)c1-c1nc2ccccc2s1 [Example 482]	0.5 to 5
Cc1ccc(CNc2nc(C)c(-c3nc4ccccc4s3)c(N[C@@H]3C[C@H](CO)[C@H]4OC(C)(C)O[C@H]43)n2)s1 [Example 496]	< 0.5
CCc1cc2cc(-c3c(C)nc(NCc4ccco4)nc3N[C@@H]3C[C@H](CO)[C@@H](O)[C@H]3O)oc2cn1 [Example 705]	< 0.5
CCc1cc2cc(-c3c(Cl)nc(NCC(C)C)nc3N[C@@H]3C[C@H](CO)[C@@H](O)[C@H]3O)oc2cn1 [Example 518]	< 0.5
CCCNc1nc(Cl)c(-c2nc3ccccc3s2)c(N[C@@H]2C[C@H](CO)[C@@H](O)[C@H]2O)n1 [Example 419]	< 0.5
CC(C)(C)Nc1nc(Cl)c(-c2nc3ccccc3s2)c(N[C@@H]2C[C@H](CO)[C@@H](O)[C@H]2O)n1 [Example 428]	< 0.5
CCc1cc2cc(-c3c(Cl)nc(NCC(F)(F)F)nc3N[C@@H]3C[C@H](CO)[C@@H](O)[C@H]3O)oc2cn1 [Example 516]	< 0.5
Cc1nc(CNc2nc(C)c(-c3nc4ccccc4s3)c(N[C@@H]3C[C@H](CO)[C@@H](O)[C@H]3O)n2)cs1 [Example 495]	< 0.5

Same assay, conditions: Hepatitis C virus, 72 h, HCV replicon cells, replicon RNA level by real time PCR (Taqman), day 3; calculated EC90; read-out: EC90 (μM) range

SMILES	EC90 [µM]
Cc1ccc([C@H](Nc2nc(C)c(-c3nc4ccccc4s3)c(N[C@@H]3C[C@H](CO)[C@H]4OC(C)(C)O[C@H]43)n2)C(F)(F)F)cc1 [Example 2004]	0.5 to 5

Same assay, conditions: Hepatitis C virus, 72 h, HCV replicon cells, replicon RNA level by real time PCR (Taqman), harvested on day 3; calculated EC90 reported as range class; read-out: EC90 (μM) range

SMILES	EC90 [µM]
Cc1nc(NCc2cccc(N)c2)nc(N[C@@H]2C[C@H](CO)[C@@H](O)[C@H]2O)c1-c1nc2ccccc2s1 [Example 1112]	0.5 to 5
Cc1nc(N[C@@H](C)C(C)(C)C)nc(N[C@@H]2C[C@H](CO)[C@@H](O)[C@H]2O)c1-c1nc2cnccc2s1 [Example 1310]	0.5 to 5
Cc1nc(Nc2ccccc2F)nc(N[C@@H]2C[C@H](CO)[C@@H](O)[C@H]2O)c1-c1nc2ccccc2s1 [Example 1043]	> 5
Cc1nc(Nc2cccc(OCc3ccccc3)c2)nc(N[C@@H]2C[C@H](CO)[C@@H](O)[C@H]2O)c1-c1nc2ccccc2s1 [Example 1231]	0.5 to 5
Cc1nc(NCC(F)(F)F)nc(N[C@@H]2C[C@H](CN(C)C)[C@@H](O)[C@H]2O)c1-c1nc2ccccc2s1 [Example 1016]	0.5 to 5
Cc1nc(Nc2ncco2)nc(N[C@@H]2C[C@H](CO)[C@@H](O)[C@H]2O)c1-c1nc2ccccc2s1 [Example 1226]	> 5
[2H]C([2H])(Nc1nc(C)c(-c2nc3ccccc3s2)c(N[C@@H]2C[C@H](CO)[C@@H](O)[C@H]2O)n1)c1ccccc1 [Example 1245]	< 0.5
COc1cc(OC)cc(C(C)Nc2nc(C)c(-c3nc4ccccc4s3)c(N[C@@H]3C[C@H](CO)[C@@H](O)[C@H]3O)n2)c1 (stereo partly shown) [Example 1209]	0.5 to 5
Cc1nc(NCC2CC2)nc(N[C@@H]2C[C@H](CO)[C@@H](O)[C@H]2O)c1-c1nc2cc(OC(F)F)c(OC(F)F)cc2s1 [Example 1006]	0.5 to 5
Cc1cccc(CNc2nc(C)c(-c3nc4ccccc4s3)c(N[C@@H]3C[C@H](CO)[C@@H](O)[C@H]3O)n2)n1 [Example 1208]	0.5 to 5
Cc1nc(NCc2ccco2)nc(N[C@@H]2C[C@H](CO)[C@@H](O)[C@H]2O)c1-c1nc2ccccc2s1 [Example 1110]	< 0.5
COc1cc(OC)cc([C@@H](C)Nc2nc(C)c(-c3nc4cnccc4s3)c(N[C@@H]3C[C@H](CO)[C@@H](O)[C@H]3O)n2)c1 [Example 1307]	< 0.5
Cc1nc(NCc2cccc(O)c2)nc(N[C@@H]2C[C@H](CO)[C@@H](O)[C@H]2O)c1-c1nc2ccccc2s1 [Example 1212]	< 0.5
Cc1nc(NCC2CC2)nc(O[C@@H]2C[C@H](CO)[C@@H](O)[C@H]2O)c1-c1nc2ccccc2s1 [Example 1132]	> 5
Cc1ccc([C@@H](C)Nc2nc(C)c(-c3ccc4ccccc4n3)c(N[C@@H]3C[C@H](CO)[C@@H](O)[C@H]3O)n2)cc1 [Example 1323]	> 5
CC(C)(C)CNc1nc(CF)c(-c2nc3ccccc3s2)c(N[C@@H]2C[C@H](CO)[C@@H](O)[C@H]2O)n1 [Example 1120]	> 5

Same assay, conditions: Hepatitis C virus, 72 h, HCV replicon cells, replicon RNA level by real time PCR, harvested day 3; read-out: EC90 (μM) range

SMILES	EC90 [µM]
CCC(O)[C@H]1C[C@@H](Nc2nc(NCC(F)(F)F)nc(C)c2-c2nc3ccccc3s2)[C@H](O)[C@@H]1O (stereo partly shown) [Example 1637]	0.5 to 5
Cc1nc(NC2CC2)nc(N[C@@H]2C[C@H](CO)[C@@H](O)[C@H]2O)c1-c1nc2c(C3CC3)nccc2s1 [Example 1402]	< 0.5
Cc1nc(N[C@H](C)c2ccc(OC(F)(F)F)cc2)nc(N[C@@H]2C[C@H](C(C)O)[C@@H](O)[C@H]2O)c1-c1nc2ccccc2s1 (single isomer, unassigned) [Example 1645]	0.5 to 5
Cc1nc(N(C)CC(F)(F)F)nc(N[C@@H]2C[C@H](CN(C)S(C)(=O)=O)[C@@H](O)[C@H]2O)c1-c1nc2ccccc2s1 [Example 1378]	> 5
CCc1nccc2sc(-c3c(C)nc(NCC(F)(F)F)nc3N[C@@H]3C[C@H](CO)[C@@H](O)[C@H]3O)nc12 [Example 1340]	< 0.5
Cc1nc(NCC(F)(F)F)nc(N[C@@H]2C[C@H](CO)[C@@H](O)[C@@]2(C)O)c1-c1nc2cnccc2s1 [Example 1709]	< 0.5
CCOc1cc2cc(-c3c(C)nc(NCC4CC4)nc3N[C@@H]3C[C@H](CNS(C)(=O)=O)[C@@H](O)[C@H]3O)oc2c(C)n1 [Example 1347]	< 0.5
Cc1ccsc1CCNc1nc(C)c(-c2nc3ccccc3s2)c(N[C@@H]2C[C@H](CO)[C@@H](O)[C@H]2O)n1 [Example 1706]	0.5 to 5
Cc1nc(NC(C)c2cccnc2)nc(N[C@@H]2C[C@H](CO)[C@@H](O)[C@H]2O)c1-c1nc2ccccc2s1 (stereo partly shown) [Example 1802]	0.5 to 5
Cc1nc(NS(C)(=O)=O)nc(N[C@@H]2C[C@H](CO)[C@@H](O)[C@H]2O)c1-c1nc2ccccc2s1 [Example 1917]	> 5
Cc1nc(NCC(F)(F)F)nc(N[C@@H]2C[C@H](CS(C)(=O)=O)[C@@H](O)[C@H]2O)c1-c1nc2ccccc2s1 [Example 1357]	< 0.5
Cc1nc(N[C@H](C)c2ccc(OC(F)F)cc2)nc(N[C@@H]2C[C@H](CO)[C@@H](O)[C@H]2O)c1-c1nc2c(C)nccc2s1 [Example 1545]	< 0.5
Cc1nc(N[C@H](c2cccs2)C(F)(F)F)nc(N[C@@H]2C[C@H](CO)[C@@H](O)[C@H]2O)c1-c1nc2ccccc2s1 [Example 1803]	> 5
Cc1nc(N[C@H](C)c2ccc(OC(F)(F)F)cc2)nc(N[C@@H]2C[C@H](CO)[C@@H](O)[C@H]2O)c1-c1nc2c(C)nccc2s1 [Example 1528]	< 0.5
